≈ marks a conversion by molar mass, not a printed value. Like-named read-outs stand apart in the source and are kept apart here.
Columns and labels:
[1] = tested on: Mycobacterium tuberculosis H37Ra; assay: Antimycobacterial microdilution broth MIC (resazurin), Mtb H37Ra; type: cell-based; details: Mycobacterium tuberculosis, H37RA, read-out: MIC Mtb H37Ra
[2] = tested on: Mycolicibacterium smegmatis DSM 43465; assay: Antimycobacterial microdilution broth MIC (resazurin), M. smegmatis; type: cell-based; details: DSM43465, read-out: MIC M. smegmatis
[3] = tested on: Mycolicibacterium aurum DSM 43999; assay: Antimycobacterial microdilution broth MIC (resazurin), M. aurum; type: cell-based; details: DSM43999, read-out: MIC M. aurum
[4] = tested on: Mycobacterium tuberculosis H37Rv; assay: Microplate Alamar Blue Assay MIC, Mtb H37Rv; type: cell-based
[5] = tested on: M. kansasii CNCTC My 235/80; assay: Microplate Alamar Blue Assay MIC, M. kansasii; type: cell-based
[6] = tested on: M. avium ssp. avium CNCTC My 80/72; assay: Microplate Alamar Blue Assay MIC, M. avium; type: cell-based
[7] = tested on: Mycobacterium tuberculosis H37Ra; set-up: method as in Nawrot et al. 2021; details: previously published N‐pyridinyl benzamides; ref Nawrot et al. 2021; cited from earlier work

Compound | MIC Mtb H37Ra (μg/mL), previously published compounds [7] [µg/mL] | also measured
NNC(=O)c1ccncc1 [INH, isoniazid, reference compound] |  | MIC ([1]; Calculated from MIC (μg/mL)): 0.9 to 1.8 µM; MIC [1]: 0.125 to 0.25 µg/mL; MIC [2]: 7.81 to 15.6 µg/mL (≈ 56.9 to 114 µM); MIC [3]: 3.91 to 7.81 µg/mL (≈ 28.5 to 56.9 µM); MIC Mtb H37Rv [4]: 0.1 to 0.2 µg/mL; MIC M. kansasii [5]: 3.13 to 12.5 µg/mL; MIC M. avium [6]: 6.25 to 12.5 µg/mL
O=C(Nc1ccc(Cl)cn1)c1ccccc1Cl [C00003 R1=5-Cl,R2=2-Cl] | > 500 | 
O=C(Nc1ccccn1)c1ccc(Cl)cc1 [C00003 R1=H,R2=4-Cl] | 62.5 (≈ 269 µM) | 
O=C(Nc1cccc(Cl)n1)c1ccc(Cl)cc1 [C00003 R1=6-Cl,R2=4-Cl] | > 500 | 
O=C(Nc1ccccn1)c1ccccc1Cl [C00003 R1=H,R2=2-Cl] | > 500 | 
O=C(Nc1cccc(Cl)n1)c1cccc(Cl)c1 [C00003 R1=6-Cl,R2=3-Cl] | 15.625 (≈ 58.5 µM) | 
COc1cccc(C(=O)Nc2cccc(Cl)n2)c1 [C00003 R1=6-Cl,R2=3-OMe] | 31.25 (≈ 119 µM) | 
COc1ccccc1C(=O)Nc1ccc(Cl)cn1 [C00003 R1=5-Cl,R2=2-OMe] | 31.25 (≈ 119 µM) | 
COc1ccc(C(=O)Nc2ccc(Cl)cn2)cc1 [C00003 R1=5-Cl,R2=4-OMe] | 62.5 (≈ 238 µM) | 
O=C(Nc1cccc(Cl)n1)c1ccccc1Cl [C00003 R1=6-Cl,R2=2-Cl] | 62.5 (≈ 234 µM) | 
COc1ccc(C(=O)Nc2ccccn2)cc1 [C00003 R1=H,R2=4-OMe] | 62.5 (≈ 274 µM) | 
O=C(Nc1ccc(Cl)cn1)c1cccc(C(F)(F)F)c1 [C00003 R1=5-Cl,R2=3-CF3] | 7.81 (≈ 26 µM) | 
O=C(Nc1ccc(Cl)cn1)c1ccccc1 [C00003 R1=5-Cl,R2=H] | > 500 | 
